Data as given in US9802885B2, “Substituted cyclohexane compounds” (TAKASAGO INTERNATIONAL CORPORATION (USA), priority 2011, dated 2017).
Entries after “also recorded” stand apart in the source; their conditions may differ.

Tests used:
trained evaluators [1] = assay: Rated warming level of hot and spicy flavor composition in water, swish and spit (Example 17); type: in vivo
Protocol: Each evaluator was asked to rate the warming level in the mouth on a scale of 1-9 over a 5 minute period after swishing & spitting the sample.

[2] = Organoleptic properties of the compounds of Formulas I, II and III (Tables 1-3); details: in vivo
Source text: For example, the compounds of the presently disclosed subject matter impart cooling, warming, burning, tingling, numbing, salivating, musty, bitter, and/or astringent sensation. In addition, the compounds of the presently disclosed subject matter can impart tropical, fruity (e.g., berry), minty, phenolic, and vegetable (e.g., peppery) notes as well as creaminess and sweetness to flavor ingredients. The organoleptic properties of certain compounds of Formulas I, II, and III are described in Tables 1, 2, and 3, respectively.

trained evaluators [3] = assay: Enhancement of the warming effect of vanillyl butyl ether (VBE), heat intensity and preference (Example 20); type: in vivo
Protocol: Compound 1 was tested for its synergistic enhancement of the warming effect from pungent compound vanillyl butyl ether (VBE). A stock solution of 1% VBE in ethanol was prepared. This stock solution was then added at 0.2% in water to produce a 20 ppm tasting solution (Control). To subsequent 20 ppm tasting solutions was added 2.5 ppm of Compound 1 (Formula G) and 2.5 ppm WS-3 (Formula H). Ten trained evaluators were asked to rate heat intensity in the mouth and rank the three samples for preference after swishing and spitting the sample.

[4] = system: expertly trained evaluators; assay: Rated cooling intensity of mouth-rinse composition (Example 21); type: in vivo
Protocol: Compound 8 was tested in the following mouth-rinse composition Formula J and evaluated over a 20 minute period by five expertly trained evaluators, compared to two other mint flavor compositions, a Control and Formula K that contains WS-3 as shown below. The compositions were each dissolved at 0.1% in the following mouth-rinse base (50 ppm dosage of Compound 8 & WS-3 respectively). The evaluators were asked to rate cooling intensity on a scale of 1-9 in the mouth at 0, 0.5, 1, 5, 10, and 20 minutes.

trained evaluators [5] = assay: Tasting of wasabi-type flavor composition in water (Example 18); type: in vivo
Source text: Formula C was selected as being preferred by 7 out of the 8 evaluators.

[6] = system: expertly trained evaluators; assay: Tasting of mouthwatering composition in water (Example 19); type: in vivo; details: 0.5% w/w Compound 10, 0.05% in water (2.5 ppm)
[7] = generally known; cited from earlier work

SMILES | Organoleptic Properties [2] | further results
C=C(C)[C@@H]1CC[C@@H](C)C[C@H]1C(=O)NCC [Compound 1, (1R,2R,5R)—N-ethyl-5-methyl-2-(prop-1-en-2-yl)cyclohexanecarboxamide] | cooling, tingling, and numbing sensation | heat/warming perception compared to control Formula B (trained evaluators [1]; 0.5% w/w Compound 1): enhance the initial heat perception; heat/warming perception compared to control Formula B (trained evaluators [1]; 0.5% w/w Compound 1, listed as N-ethyl-5-methyl-2-(prop-1-en-2-yl)cyclohexanecarboxamide): enhances the warming perception; enhancement of the warming effect of pungent compounds compared to WS-3 (trained evaluators [3]): enhances the warming effect of pungent compounds much better
C=C(C)[C@@H]1CC[C@@H](C)C[C@H]1C(=O)NC1CC1 [Compound 2, (1R,2R,5R)—N-cyclopropyl-5-methyl-2-(prop-1-en-2-yl)cyclohexanecarboxamide] | slight cooling, salivating | 
C=C(C)[C@@H]1CC[C@@H](C)C[C@H]1C(=O)NC(C)C [Compound 3, (1R,2R,5R)—N-isopropyl-5-methyl-2-(prop-1-en-2-yl)cyclohexanecarboxamide] | slight cooling | 
C=C(C)[C@@H]1CC[C@@H](C)C[C@H]1C(=O)NC(C)(C)C [Compound 4, (1R,2R,5R)—N-(tert-butyl)-5-methyl-2-(prop-1-en-2-yl)cyclohexanecarboxamide] | slight burn, warming,; also recorded: irritation | 
C=C(C)[C@@H]1CC[C@@H](C)C[C@H]1C(=O)NC(C)CC (stereo partly drawn) [Compound 5, (1R,2R,5R)—N-(sec-butyl)-5-methyl-2-(prop-1-en-2-yl)cyclohexanecarboxamide] | bitter, cooling | 
C=C(C)[C@@H]1CC[C@@H](C)C[C@H]1C(=O)NCC(=O)OCC [Compound 6, (1R,2R,5R)-ethyl 2-(5-methyl-2-(prop-1-en-2-yl)cyclohexanecarboxamido)acetate] | bitter, cooling, irritation | 
C=C(C)[C@@H]1CC[C@@H](C)C[C@H]1C(=O)Nc1ccc(OC)cc1 [Compound 7, (1R,2R,5R)—N-(4-methoxyphenyl)-5-methyl-2-(prop-1-en-2-yl)cyclohexanecarboxamide] | musty, astringent, slight cooling | 
C=C(C)[C@@H]1CC[C@@H](C)C[C@H]1C(=O)Nc1ccc(CC#N)cc1 [Compound 8, (1R,2R,5R)—N-(4-(cyanomethyl)phenyl)-5-methyl-2-(prop-1-en-2-yl)cyclohexanecarboxamide] | phenolic, strong burning | cooling perception of the mouth-rinse composition compared to Control and WS-3 (Formula K) [4]: enhances and lengthens the cooling of a mouth-rinse composition better than WS-3; burning sensation and character compared to control Formula D (trained evaluators [5]; 0.5% w/w Compound 8): more intense and lingering burning sensation; burning sensation and character compared to control Formula D (trained evaluators [5]; 0.5% w/w Compound 8, listed as N-(4-(cyanomethyl)phenyl)-5-methyl-2-(prop-1-en-2-yl)cyclohexanecarboxamide): improved lingering burning sensation
C=C(C)[C@@H]1CC[C@@H](C)C[C@H]1OC(=O)CCC(=O)O [Compound 9, (1R,2S,5R)-4-((−5-methyl-2-(prop-1-en-2-yl)cyclohexyl)oxy)-4-oxobutanoic acid] | fruity, chemical, slight; also recorded: cooling/burn | 
C=C(C)[C@@H]1CC[C@@H](C)C[C@H]1OC(=O)CCCC(=O)O [Compound 10, (1R,2S,5R)-5-((−5-methyl-2-(prop-1-en-2-yl)cyclohexyl)oxy)-5-oxopentanoic acid] | sweet, fruity, slight; also recorded: cooling | mouthwatering effect compared to control Formula F [6]: extended cooling and increased astringency
C=C(C)[C@@H]1CC[C@@H](C)C[C@H]1OC(=O)C(C)O (stereo partly drawn) [Compound 11, (1R,2S,5R)-5-methyl-2-(prop-1-en-2-yl)cyclohexyl 2-hydroxypropanoate] | minty, bitter, cooling | 
C=C(C)[C@@H]1CC[C@@H](C)C[C@H]1OC(=O)CC(C)=O [Compound 12, (1R,2S,5R)-5-methyl-2-(prop-1-en-2-yl)cyclohexyl 3-oxobutanoate] | bitter, fruity | 
C=C(C)[C@@H]1CC[C@@H](C)C[C@H]1OC(=O)CC(C)O (stereo partly drawn) [Compound 13, (1R,2S,5R)-5-methyl-2-(prop-1-en-2-yl)cyclohexyl 3-hydroxybutanoate] | bitter, mild peppery | 
C=C(C)[C@@H]1CC[C@@H](C)C[C@H]1OCC(=O)O [Compound 14, (1R,2S,5R)-2-((5-methyl-2-(prop-1-en-2-yl)cyclohexyl)oxy)acetic acid] | creamy; also recorded: fruity, | 
C=C(C)[C@@H]1CC[C@@H](C)C[C@H]1OCC(=O)NCC(C)C [Compound 15, (1R,2S,5R)—N-isobutyl-2-((5-methyl-2-(prop-1-en-2-yl)cyclohexyl)oxy)acetamide] | bitter,; also recorded: tingle/; also recorded: burning | 
CCNC(=O)C1CC(C)CCC1C(C)C (centres unmarked) [WS-3, N-ethyl-5-methyl-2-isopropylcyclohexanecarboxamide] |  | sensation provided by menthyl analog [7]: clean cool
